Reference: US9624239B2, “Protein kinase inhibitors” (Pharmascience Inc., priority 2011, dated 2017)

Legend:
[1] = biological target: T1, histidine tagged recombinant human full-length Bruton Agammaglobulinemia Tyrosine Kinase (Btk) (Homo sapiens, UniProt Q06187); assay: Btk kinase inhibition assay (fluorescence polarization, KinEASE FP Fluorescein Green); format: biochemical; settings: 10 μM ATP, 250 μM substrate, 60 minutes, room temperature; Ki from IC50 by Cheng-Prusoff; read-out: ki50 (nM), Inhibition of Btk
T1 construct: recombinant human full-length Bruton Agammaglobulinemia Tyrosine Kinase (Btk); histidine tag
Protocol: Kinase Binding Btk and Lck Kinase Inhibition Assay
Fluorescence polarization-based kinase assays were performed in 384 well-plate format using histidine tagged recombinant human full-length Bruton Agammaglobulinemia Tyrosine Kinase (Btk) or histidine tagged recombinant Human Lymphocyte-Specific Protein Tyrosine Kinase (Lck) and a modified protocol of the KinEASE™ FP Fluorescein Green Assay supplied from Millipore. Kinase reaction were performed at room temperature for 60 minutes in presence of 250 μM substrate, 10 μM ATP and variable test article concentrations. The reaction was stopped with EDTA/kinease detection reagents and the polarization measured on a Tecan 500 instrument. From the dose-response curve obtained, the IC50 was calculated using Graph Pad Prisms® using a non-linear fit curve. The Km for ATP on each enzyme was experimentally determined and the Ki values calculated using the Cheng-Prusoff equation (see: Cheng Y, Prusoff W H. (1973) Relationship between the inhibition constant (K1) and the concentration of inhibitor which causes 50 percent inhibition (I50) of an enzymatic reaction”. Biochem Pharmacol 22 (23): 3099-108).
ki values are reported in Tables 2 and 3: • a—Less than 100 nM; b—less than 1000 nM; c—more than 1000 nM

mouse splenocytes = assay: Splenic cell proliferation assay (anti-IgM stimulated B cell proliferation, Cell Titer-Glo); format: cell-based; settings: Splenocyte; CD1 mouse splenocytes, 1 h pre-treatment, 2.5 ug/ml anti-IgM F(ab')2 for 72 h; read-out: EC50 (nM), Inhibition of splenic cell proliferation
Protocol: Splenic Cell Proliferation Assay
Splenocytes were obtained from 6 week old male CD1 mice (Charles River Laboratories Inc.). Mouse spleens were manually disrupted in PBS and filtered using a 70 μm cell strainer followed by ammonium chloride red blood cell lysis. Cells were washed, resuspended in Splenocyte Medium (HyClone RPMI supplemented with 10% heat-inactivated FBS, 0.5× non-essential amino acids, 10 mM HEPES, 50 uM beta mercaptoethanol) and incubated at 37° C., 5% CO2 for 2 h to remove adherent cells. Suspension cells were seeded in 96 well plates at 50,000 cells per well and incubated at 37° C., 5% CO2 for 1 h. Splenocytes were pre-treated in triplicate with 10,000 nM curves of Formula 1 compounds for 1 h, followed by stimulation of B cell proliferation with 2.5 ug/ml anti-IgM F(ab′)2 (Jackson ImmunoResearch) for 72 h. Cell proliferation was measured by Cell Titer-Glo Luminescent Assay (Promega). EC50 values (50% proliferation in the presence of compound as compared to vehicle treated controls) were calculated from dose response compound curves using GraphPad Prism Software.
EC50 values are reported in Table 4: • a—Less than 100 nM; b—less than 1000 nM; c—more than 1000 nM

T1 sequence (Q06187 whole entry): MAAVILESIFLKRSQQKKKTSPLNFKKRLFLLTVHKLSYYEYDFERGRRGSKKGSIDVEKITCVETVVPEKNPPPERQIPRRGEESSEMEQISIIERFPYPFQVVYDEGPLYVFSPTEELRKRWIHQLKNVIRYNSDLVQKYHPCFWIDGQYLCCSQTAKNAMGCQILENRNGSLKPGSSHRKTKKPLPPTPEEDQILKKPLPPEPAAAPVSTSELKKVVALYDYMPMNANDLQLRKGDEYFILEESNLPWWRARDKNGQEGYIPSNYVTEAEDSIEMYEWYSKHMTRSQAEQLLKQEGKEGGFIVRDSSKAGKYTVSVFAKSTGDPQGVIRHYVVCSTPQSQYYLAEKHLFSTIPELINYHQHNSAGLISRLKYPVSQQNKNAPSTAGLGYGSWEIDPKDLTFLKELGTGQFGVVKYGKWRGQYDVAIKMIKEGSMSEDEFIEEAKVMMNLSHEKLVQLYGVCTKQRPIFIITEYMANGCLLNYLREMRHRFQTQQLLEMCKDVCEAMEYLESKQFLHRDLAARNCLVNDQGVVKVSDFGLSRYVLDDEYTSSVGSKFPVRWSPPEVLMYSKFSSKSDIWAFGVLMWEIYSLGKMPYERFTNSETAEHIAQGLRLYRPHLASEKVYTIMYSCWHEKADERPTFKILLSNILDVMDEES

| Compound | Ki [1] | EC50 (mouse splenocytes) |
| --- | --- | --- |
| Nc1ncnc2c3c(n(-c4ccc(Oc5ccccc5)cc4)c12)CN(C(=O)OCc1ccccc1)C3 [Compound 5] | > 1000 nM | – |
| Nc1ncnc2c3c(n(-c4ccc(Oc5ccccc5)cc4)c12)CCN(C(=O)OCc1ccccc1)C3 [Compound 6] | > 1000 nM | – |
| Nc1ncnc2c3c(n(-c4ccc(Oc5ccccc5)cc4)c12)CN(Cc1ccccc1)C3 [Compound 10] | > 1000 nM | – |
| Nc1ncnc2c3c(n(-c4ccc(Oc5ccccc5)cc4)c12)CCN(Cc1ccccc1)C3 [Compound 11] | > 1000 nM | – |
| Nc1ncnc2c3c(n(-c4ccc(Oc5ccccc5)cc4)c12)CCN(S(=O)(=O)c1ccccc1)C3 [Compound 12] | > 1000 nM | – |
| Nc1ncnc2c3c(n(-c4ccc(Oc5ccccc5)cc4)c12)CCN(C(=O)c1ccccc1)C3 [Compound 16] | > 1000 nM | – |
| NCC(=O)N1CCc2c(c3ncnc(N)c3n2-c2ccc(Oc3ccccc3)cc2)C1 [Compound 17] | > 1000 nM | – |
| NCC(=O)N1Cc2c(n(-c3ccc(Oc4ccccc4)cc3)c3c(N)ncnc23)C1 [Compound 19] | > 1000 nM | – |
| CC1OCc2c1c1ncnc(N)c1n2-c1ccc(Oc2cccc(N)c2)cc1 (centres unmarked) [Compound 47] | < 1000 nM | – |
| CC1OCc2c1c1ncnc(N)c1n2-c1ccc(Oc2cccc(OCCN(C)C)c2)cc1 (centres unmarked) [Compound 48] | > 1000 nM | – |
| CC1OCc2c1c1ncnc(N)c1n2-c1ccc(Oc2cccc(OCCN3CCOCC3)c2)cc1 (centres unmarked) [Compound 51] | > 1000 nM | – |
| CC1OCc2c1c1ncnc(N)c1n2-c1ccc(Oc2cccc(OCCN3CCCC3)c2)cc1 (centres unmarked) [Compound 52] | > 1000 nM | – |
| CC(=O)Nc1cccc(Oc2ccc(-n3c4c(c5ncnc(N)c53)C(C)OC4)cc2)c1 (centres unmarked) [Compound 55] | < 1000 nM | – |
| Nc1ncnc2c3c(n(-c4ccc(Oc5cccc(OCc6cccnc6)c5)cc4)c12)CCC3 [Compound 62] | < 100 nM | 100 to 1000 nM |
| Nc1ncnc2c3c(n(-c4ccc(Oc5ccccc5)cc4)c12)CSC3 [Compound 63] | > 1000 nM | > 1000 nM |
| CC1OCc2c1c1ncnc(N)c1n2-c1ccc(Oc2cccc(OCc3ccc(C#N)cc3)c2)cc1 (centres unmarked) [Compound 64] | < 1000 nM | > 1000 nM |
| Nc1ncnc2c3c(n(-c4ccc(Oc5ccccc5)cc4)c12)CS(=O)(=O)C3 [Compound 65] | > 1000 nM | > 1000 nM |
| CCNc1cccc(Oc2ccc(-n3c4c(c5ncnc(N)c53)C(C)OC4)cc2)c1 (centres unmarked) [Compound 66] | < 1000 nM | 100 to 1000 nM |
| CC1OCc2c1c1ncnc(N)c1n2-c1ccc(Oc2cccc(OCC3CCOCC3)c2)cc1 (centres unmarked) [Compound 67] | < 100 nM | > 1000 nM |

| Compound | Ki [1] | EC50 (mouse splenocytes) |
| --- | --- | --- |
| Nc1ncnc2c3c(n(-c4ccc(Oc5cccc(OCc6ccccc6)c5)cc4)c12)CCC3 [Compound 68] | < 100 nM | 100 to 1000 nM |
| CC1OCc2c1c1ncnc(N)c1n2-c1ccc(Oc2cccc(NCc3ccccc3)c2)cc1 (centres unmarked) [Compound 69] | < 100 nM | > 1000 nM |
| CC1OCc2c1c1ncnc(N)c1n2-c1ccc(Oc2cccc(N(C)C)c2)cc1 (centres unmarked) [Compound 70] | < 1000 nM | 100 to 1000 nM |
| CC1OCc2c1c1ncnc(N)c1n2-c1ccc(Oc2ccc(C#N)cc2)cc1 (centres unmarked) [Compound 71] | > 1000 nM | > 1000 nM |
| CC1OCc2c1c1ncnc(N)c1n2-c1ccc(Oc2cccnc2)cc1 (centres unmarked) [Compound 72] | > 1000 nM | > 1000 nM |
| CC1OCc2c1c1ncnc(N)c1n2-c1ccc(Oc2cccc(OCCCN(C)C)c2)cc1 (centres unmarked) [Compound 73] | > 1000 nM | > 1000 nM |
| CC1OCc2c1c1ncnc(N)c1n2-c1ccc(Oc2ccncc2)cc1 (centres unmarked) [Compound 74] | > 1000 nM | > 1000 nM |
| CC1OCc2c1c1ncnc(N)c1n2-c1ccc(Oc2cccc(OCc3ccccn3)c2)cc1 (centres unmarked) [Compound 75] | < 100 nM | > 1000 nM |
| CC1OCc2c1c1ncnc(N)c1n2-c1ccc(Oc2cccc(NS(C)(=O)=O)c2)cc1 (centres unmarked) [Compound 76] | < 1000 nM | > 1000 nM |
| CC1OCc2c1c1ncnc(N)c1n2-c1ccc(Oc2cccc(OCCc3ccccc3)c2)cc1 (centres unmarked) [Compound 77] | < 100 nM | 100 to 1000 nM |
| CC1OCc2c1c1ncnc(N)c1n2-c1ccc(Oc2cccc(O[C@H](C)c3ccccc3)c2)cc1 (some centres unmarked) [Compound 78] | < 1000 nM | > 1000 nM |
| Cc1ccc(Oc2ccc(-n3c4c(c5ncnc(N)c53)C(C)OC4)cc2)cc1 (centres unmarked) [Compound 79] | < 1000 nM | > 1000 nM |
| CC1OCc2c1c1ncnc(N)c1n2-c1ccc(Oc2cccc(NS(=O)(=O)c3ccccc3)c2)cc1 (centres unmarked) [Compound 80] | < 1000 nM | > 1000 nM |
| CC1OCc2c1c1ncnc(N)c1n2-c1ccc(Oc2cccc(NS(=O)(=O)Cc3ccccc3)c2)cc1 (centres unmarked) [Compound 81] | < 100 nM | > 1000 nM |
| CC1OCc2c1c1ncnc(N)c1n2-c1ccc(Oc2cccc(NC(=O)c3ccccc3)c2)cc1 (centres unmarked) [Compound 82] | < 100 nM | > 1000 nM |
| CC1OCc2c1c1ncnc(N)c1n2-c1ccc(Oc2cccc(OCC(N)=O)c2)cc1 (centres unmarked) [Compound 83] | > 1000 nM | > 1000 nM |
| CC1OCc2c1c1ncnc(N)c1n2-c1ccc(Oc2cccc(NC(=O)Cc3ccccc3)c2)cc1 (centres unmarked) [Compound 84] | < 100 nM | > 1000 nM |
| CC1OCc2c1c1ncnc(N)c1n2-c1ccc(Oc2cccc(COc3ccccc3)c2)cc1 (centres unmarked) [Compound 85] | < 100 nM | 100 to 1000 nM |
| CC1OCc2c1c1ncnc(N)c1n2-c1ccc(Oc2cccc(O[C@@H](C)c3ccccc3)c2)cc1 (some centres unmarked) [Compound 86] | < 100 nM | > 1000 nM |

| Compound | Ki [1] | EC50 (mouse splenocytes) |
| --- | --- | --- |
| Cc1nc(COc2cccc(Oc3ccc(-n4c5c(c6ncnc(N)c64)C(C)OC5)cc3)c2)no1 (centres unmarked) [Compound 87] | < 100 nM | > 1000 nM |
| CC1OCc2c1c1ncnc(N)c1n2-c1ccc(Oc2ccccc2)nc1 (centres unmarked) [Compound 88] | > 1000 nM | – |
| CC1OCc2c1c1ncnc(N)c1n2-c1ccc(Oc2cccc(OCc3cccc(C#N)c3)c2)cc1 (centres unmarked) [Compound 89] | < 100 nM | 100 to 1000 nM |
| Cc1nc(-c2cccc(Oc3ccc(-n4c5c(c6ncnc(N)c64)C(C)OC5)cc3)c2)cs1 (centres unmarked) [Compound 90] | < 100 nM | 100 to 1000 nM |
| CC1OCc2c1c1ncnc(N)c1n2-c1ccc(Oc2cccc(N3CCOCC3)c2)cc1 (centres unmarked) [Compound 91] | < 1000 nM | – |
| CC1OCc2c1c1ncnc(N)c1n2-c1ccc(Oc2cccc(OCc3cccc(C(N)=O)c3)c2)cc1 (centres unmarked) [Compound 92] | < 100 nM | 100 to 1000 nM |
| CC1OCc2c1c1ncnc(N)c1n2-c1ccc(Oc2cccc(OCc3cncn3C)c2)cc1 (centres unmarked) [Compound 93] | < 100 nM | – |
| CC1OCc2c1c1ncnc(N)c1n2-c1ccc(Oc2cccc(OCc3ccccc3F)c2)cc1 (centres unmarked) [Compound 94] | < 100 nM | 100 to 1000 nM |
| CC1OCc2c1c1ncnc(N)c1n2-c1ccc(Oc2cccc(OCc3ccc(Cl)cc3)c2)cc1 (centres unmarked) [Compound 95] | < 100 nM | 100 to 1000 nM |
| CC1OCc2c1c1ncnc(N)c1n2-c1ccc(Oc2cccc(OCc3ccccc3C#N)c2)cc1 (centres unmarked) [Compound 96] | < 100 nM | < 100 nM |
| CC1OCc2c1c1ncnc(N)c1n2-c1ccc(Oc2cccc(OCc3cccc(Cl)c3)c2)cc1 (centres unmarked) [Compound 97] | < 100 nM | 100 to 1000 nM |
| CC1OCc2c1c1ncnc(N)c1n2-c1ccc(Oc2cccc(OCc3ccc(C(N)=O)cc3)c2)cc1 (centres unmarked) [Compound 98] | < 100 nM | – |
| CC1OCc2c1c1ncnc(N)c1n2-c1ccc(Oc2cccc(OCc3cccc(F)c3)c2)cc1 (centres unmarked) [Compound 99] | < 100 nM | 100 to 1000 nM |
| CC1OCc2c1c1ncnc(N)c1n2-c1ccc(Oc2cccc(OCc3ccccc3C(F)(F)F)c2)cc1 (centres unmarked) [Compound 100] | < 100 nM | < 100 nM |
| CC1OCc2c1c1ncnc(N)c1n2-c1ccc(Oc2cccc(OCc3ccccc3C(N)=O)c2)cc1 (centres unmarked) [Compound 101] | < 1000 nM | – |
| Cc1nc(COc2cccc(Oc3ccc(-n4c5c(c6ncnc(N)c64)C(C)OC5)cc3)c2)cs1 (centres unmarked) [Compound 102] | < 100 nM | 100 to 1000 nM |
| COc1cccc(COc2cccc(Oc3ccc(-n4c5c(c6ncnc(N)c64)C(C)OC5)cc3)c2)c1 (centres unmarked) [Compound 103] | < 100 nM | 100 to 1000 nM |
| COc1ccc(COc2cccc(Oc3ccc(-n4c5c(c6ncnc(N)c64)C(C)OC5)cc3)c2)cc1 (centres unmarked) [Compound 104] | < 100 nM | 100 to 1000 nM |
| CC(=O)Nc1ccc(COc2cccc(Oc3ccc(-n4c5c(c6ncnc(N)c64)C(C)OC5)cc3)c2)cc1 (centres unmarked) [Compound 109] | < 1000 nM | – |
